The Cmax is the peak of the concentration-time curve. What is called DC50 is the concentration giving 50% degradation. For orientation: Dmax means the largest share of the target that was removed.

Each structure is given as a SMILES string. Entries after “also recorded” stand apart in the source; their conditions may differ.

The source of these data is US20200121684A1, “MODULATORS OF BTK PROTEOLYSIS AND METHODS OF USE” (Yale University, priority 2018, published 2020).

In data set [1] the target is T1, C481S BTK (Homo sapiens, UniProt Q06187, C481S). Briefly: BTK degradation in XLA cells expressing C481S BTK, immunoblot. Details: expressed in transfected cells; host or cells: XLA patient-derived human B-lymphocyte line, BTK null, transduced. To be noted: compared with wild-type. It counts as cell-based. How it is done:
(§1) NAMALWA and Jurkat cell lines were purchased from ATCC and cultured according to supplier guidelines at 37° C., 5% CO2 in RPMI 1640 (Gibco) supplemented with 10% fetal bovine serum and 1× penicillin-streptomycin. Wild-type and C481S BTK XLA cell lines were cultured as previously described (39). Written, informed consent was obtained prior to the collection of cells from CLL patients using the IWCLL2008 criteria. Isolation of mononuclear cells from peripheral blood was prepared using density gradient centrifugation. B-cells were then negatively selected ([…] Technologies). Cells were then cultured at 1×10^7 cells/mL in RPMI 1640 (Gibco) with supplementation of 10% fetal bovine serum (VWR), 100 μg/mL streptomycin (Gibco), 100 U/mL penicillin-G (Gibco), and 2 mmol/L L-glutamine (Gibco). They were maintained at 37° C. in 5% CO2.
In various embodiments, treatment with PROTAC was performed in one of two ways: 1) For experiments involving >16 h exposure to compound, a 1000× stock was added to cells followed by gentle agitation; 2) For shorter treatments, a 2× stock was added to an equal volume of cells to ensure uniform drug exposure. […] Lysates were spun at 15,000×g for 10 min at 4° C. and supernatant was quantified for total protein content using the Pierce BCA Protein Assay (Thermo Fisher Scientific). […]
Background: In western blotting, separated proteins are transferred to a membrane and probed.

Data set [2] deals with T1, C481S BTK. Put plainly: In vitro kinase inhibition, recombinant BTK, 10-point dose response, 10 μM ATP.
Data set [3] in a line: Pharmacokinetics after IV compound administration in mice. The class given is in vivo. To be noted: IV mice (1 mg/Kg).
A further data set concerns the target T2, IKZF3 (Homo sapiens, UniProt Q9UKT9).
T2 construct: endogenous in cells; host or cells: primary B-lymphocytes from CLL patients
Briefly: IKZF3 degradation in primary cells from CLL patients, immunoblot. The class given is cell-based. Conditions: B-lymphocytes derived from CLL patients. How it is done:
as §1
Either anti-rabbit or anti-mouse HRP-conjugated secondary antibodies (Pierce) were incubated with the membranes for 1 h at room temperature at 1:10,000 dilutions in 5% non-fat milk in 1×TBS-T. Imaging was performed using the ECL Prime chemiluminescent western blot detection reagents (Amersham) followed by visualization with the Bio-Rad ChemiDoc imaging instrument. All western blots were subsequently processed and quantified using the accompanying Bio-Rad Image Lab software. […]

For a further data set, the target named is T3, HER3 (Homo sapiens, UniProt P21860).
T3 construct: endogenous in cells
Briefly: HER3 (ERBB3) degradation, immunoblot. The class given is cell-based. To be noted: Table 5.

In another data set the target is T4, BTK (Homo sapiens, UniProt Q06187).
T4 construct: host or cells: NAMALWA
Put plainly: BTK degradation in NAMALWA cells, immunoblot. The class given is cell-based.

The next data set deals with ERBB3 (Homo sapiens, UniProt P21860). Briefly: KINOMEscan competition-based binding assay. To be noted: 1.0 μM.
The target of another data set is wild-type BTK (Homo sapiens, UniProt Q06187). Briefly: BTK and pBTK in primary CLL patient cells at baseline (before ibrutinib relapse).
wild-type BTK, sequence (Q06187 whole entry): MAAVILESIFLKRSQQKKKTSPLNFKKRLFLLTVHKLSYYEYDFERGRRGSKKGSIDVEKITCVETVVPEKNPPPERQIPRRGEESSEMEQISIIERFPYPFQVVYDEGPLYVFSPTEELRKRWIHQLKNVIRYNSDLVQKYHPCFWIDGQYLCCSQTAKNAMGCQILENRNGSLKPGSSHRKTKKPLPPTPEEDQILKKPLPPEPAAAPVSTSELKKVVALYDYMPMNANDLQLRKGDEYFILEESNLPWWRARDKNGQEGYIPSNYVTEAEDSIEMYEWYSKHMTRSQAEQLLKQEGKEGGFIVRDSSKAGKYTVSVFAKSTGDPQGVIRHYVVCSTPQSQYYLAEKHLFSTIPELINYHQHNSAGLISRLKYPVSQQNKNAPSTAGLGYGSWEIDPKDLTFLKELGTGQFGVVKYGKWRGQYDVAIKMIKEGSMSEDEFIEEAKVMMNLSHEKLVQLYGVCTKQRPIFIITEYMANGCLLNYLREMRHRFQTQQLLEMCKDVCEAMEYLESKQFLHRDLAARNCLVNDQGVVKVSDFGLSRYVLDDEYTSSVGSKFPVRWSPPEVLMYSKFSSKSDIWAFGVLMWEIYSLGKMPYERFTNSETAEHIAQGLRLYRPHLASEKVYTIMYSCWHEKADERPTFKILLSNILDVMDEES

T4 sequence (Q06187 whole entry): as above
T1 sequence (Q06187 whole entry C481S): as the sequence (Q06187 whole entry) above, with C481S counted along it
T3 sequence (P21860 20-1342): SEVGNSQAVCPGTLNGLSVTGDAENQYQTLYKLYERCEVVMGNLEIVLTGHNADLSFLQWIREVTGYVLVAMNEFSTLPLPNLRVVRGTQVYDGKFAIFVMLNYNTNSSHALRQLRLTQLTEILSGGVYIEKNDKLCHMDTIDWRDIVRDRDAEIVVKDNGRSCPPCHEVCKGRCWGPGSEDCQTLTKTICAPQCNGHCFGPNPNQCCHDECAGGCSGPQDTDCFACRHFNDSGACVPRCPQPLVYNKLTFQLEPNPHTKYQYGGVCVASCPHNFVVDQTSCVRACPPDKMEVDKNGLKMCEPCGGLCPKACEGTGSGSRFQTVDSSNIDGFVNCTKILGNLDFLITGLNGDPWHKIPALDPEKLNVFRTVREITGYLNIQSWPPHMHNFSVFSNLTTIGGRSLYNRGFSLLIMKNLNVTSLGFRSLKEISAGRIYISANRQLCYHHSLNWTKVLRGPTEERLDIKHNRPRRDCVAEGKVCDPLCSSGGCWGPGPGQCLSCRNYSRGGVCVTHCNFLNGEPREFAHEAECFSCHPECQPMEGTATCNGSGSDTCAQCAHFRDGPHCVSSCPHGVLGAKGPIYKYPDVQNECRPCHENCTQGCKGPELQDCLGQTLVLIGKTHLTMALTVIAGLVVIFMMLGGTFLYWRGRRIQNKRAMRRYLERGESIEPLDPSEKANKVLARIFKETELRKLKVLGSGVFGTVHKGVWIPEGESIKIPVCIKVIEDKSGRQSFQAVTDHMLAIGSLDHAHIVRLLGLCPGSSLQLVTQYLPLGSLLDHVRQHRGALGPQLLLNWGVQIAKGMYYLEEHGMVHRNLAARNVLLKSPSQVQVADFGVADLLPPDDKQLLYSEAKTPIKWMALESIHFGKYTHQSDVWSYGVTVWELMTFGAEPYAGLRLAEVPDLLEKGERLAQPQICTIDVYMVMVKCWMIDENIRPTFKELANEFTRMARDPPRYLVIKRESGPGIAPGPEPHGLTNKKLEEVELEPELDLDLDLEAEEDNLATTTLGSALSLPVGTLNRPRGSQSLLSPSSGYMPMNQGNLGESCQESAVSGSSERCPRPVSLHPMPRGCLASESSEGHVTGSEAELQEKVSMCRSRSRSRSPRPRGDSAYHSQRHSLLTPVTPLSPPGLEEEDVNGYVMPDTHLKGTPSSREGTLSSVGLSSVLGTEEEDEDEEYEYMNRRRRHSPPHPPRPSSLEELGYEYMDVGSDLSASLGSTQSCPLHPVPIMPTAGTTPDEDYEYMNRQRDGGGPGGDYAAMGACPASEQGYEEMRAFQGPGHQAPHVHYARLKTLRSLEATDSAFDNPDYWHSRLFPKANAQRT
ERBB3, sequence (P21860 20-1342): as above
T2 sequence (Q9UKT9 whole entry): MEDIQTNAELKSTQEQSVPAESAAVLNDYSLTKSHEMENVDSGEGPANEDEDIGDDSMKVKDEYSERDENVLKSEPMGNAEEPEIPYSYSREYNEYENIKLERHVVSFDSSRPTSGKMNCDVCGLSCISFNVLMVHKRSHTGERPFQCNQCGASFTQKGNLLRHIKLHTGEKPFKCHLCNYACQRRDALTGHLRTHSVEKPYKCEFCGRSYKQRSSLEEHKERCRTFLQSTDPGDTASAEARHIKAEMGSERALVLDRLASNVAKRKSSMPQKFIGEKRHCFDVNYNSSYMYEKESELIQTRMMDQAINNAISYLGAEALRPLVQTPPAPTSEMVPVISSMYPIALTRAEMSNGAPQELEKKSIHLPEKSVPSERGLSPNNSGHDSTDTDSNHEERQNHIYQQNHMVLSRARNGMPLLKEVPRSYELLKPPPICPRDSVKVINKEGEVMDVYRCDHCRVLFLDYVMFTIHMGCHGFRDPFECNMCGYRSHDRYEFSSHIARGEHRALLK
Description for wild-type BTK: The cell suspension was kept on ice and agitated every 10 minutes for 30 minutes, followed by centrifugation for 10 minutes at 4° C. The supernatant was then collected and frozen at −80° C. until quantification. Protein quantification was performed for each supernatant using the BCA method (Thermo Scientific). Protein from each sample was added to 2× or 6× Laemmli's Sample buffer as previously described (41). 50 μg of each sample and a protein molecular weight marker were loaded onto 10% polyacrylamide gels and electrophoresed. Transfer of the proteins and blocking of membranes were performed as previously described (40).
The blots were washed with TBS-T (Tris-buffered saline-0.05% Tween) three times for 10 minutes with constant agitation, then incubated with HRP-conjugated anti-rabbit or anti-mouse IgG (Santa Cruz Biotechnologies) diluted 1:5,000 in Blotto for 2 hours at 4° C. with constant agitation. Prior to development, the blots were again washed with TBS-T three times for 10 minutes with constant agitation. Blots were developed using chemiluminescent substrate (WesternBright by Advansta or SuperSignal by ThermoScientific) and X-ray film (GeneMate) was used to perform autoradiography. Quantification was performed on the protein bands using computer densitometry (AlphaView software).

Turning to `Nc1ncnc2c1c(-c1ccc(Oc3ccccc3)cc1)nn2C1CCN(CCOCCOCC(=O)Nc2ccc3c(c2)C(=O)N(C2CCC(=O)NC2=O)C3=O)CC1` (stereo not shown) [Compound 102, 2-(2-(2-(4-(4-amino-3-(4-phenoxyphenyl)-1H-pyrazolo[3,4-d]pyrimidin-1-yl)piperidin-1-yl)ethoxy)ethoxy)-N-(2-(2,6-dioxopiperidin-3-yl)-1,3-dioxoisoindolin-5-yl)acetamide], the “potency of degradation based on DC50 and Dmax” value at C481S BTK [1] is “equivalent potency of degradation”. The “inhibition potency against C481S mutant BTK relative to wild-type” value on C481S BTK [2] is “retained inhibition potency”. Further, in data set [3], the “Clearance (Cl)” value was 1662 mL/min/kg and the “Half Life (t1/2)” value was 7.14 min. Besides, the Cmax in data set [3] (Tmax 0.033 h) was determined as 0.073 µg/mL. Also, the AUC(0-t) in data set [3] (mouse, in vivo, read-out: Exposure (AUClast)) was found to be 10.2 ng·h/mL. In addition, the IKZF3 degradation result at IKZF3 was “No degradation of either protein was observed”. Besides, on HER3, the “HER3 Degradation” value was “No”. The “time to full degradation of BTK” value at BTK (250 nM, NAMALWA cells) was 4 h. The “time at which half of total BTK is degraded (half-life)” value at BTK (250 nM, NAMALWA cells, vs matched vehicle time point) is reported as “approximately 50 minutes”. Moreover, at BTK (25 μM 2.5 h, then 250 nM for 4 h), the “BTK levels after pre-treatment with excess ibrutinib or pomalidomide” value is “rescued BTK levels”. Moreover, on BTK (Table 5, NAMALWA cells), the DC50 came out at 11 nM. Besides, at BTK (Table 6, in NAMALWA cells line), the DC50 was found to be 11 nM. Further, the Dmax on BTK (Table 6, in NAMALWA cells line, read-out: Dmax) was over 99%. For the same compound, the “hook-effect (increase in BTK levels at high PROTAC concentration)” value on BTK (concentrations of up to 2.5 μM) is “no significant increases in BTK levels; also recorded: No “hook-effect””. The “BTK degradation after pre-treatment with epoxomicin” value on BTK (epoxomicin 1 μM 2.5 h, then 250 nM for 4 h) is reported as “did not result in BTK degradation”. The “displacement of competitive probe bound to ERBB3” value at ERBB3 is listed as “fully displaced the competitive probe bound to ERBB3”. Further, the “abrogation of BTK signaling (pBTK)” value on wild-type BTK (baseline patient sample) is on record as “showed efficacy in abrogating BTK signaling at baseline”. The BTK degradation entry on wild-type BTK (wild-type baseline patient sample) is “able to degrade both the wild-type baseline and C481S BTK relapse primary patient sample”.
